Results on 39 compounds are retold here after patent US7816350B2, “Substituted [1,2,3] triazolo[4,5-D]pyrimidines as cdk inhibitors” (Institute of Experimental Botany ASCR, priority 2002, dated 2010).

Where only a bound is given, the exact number is not on record here.

The target in one assay is T1, p34^cdc2/cyclin B (CDC2) (Homo sapiens, UniProt P06493).
T1 construct: made in house; host or cells: Sf9 insect cells (baculovirus co-infection)
Nature of the assay: CDK inhibition assay, p34cdc2/cyclin B kinase, histone H1 phosphorylation. It is filed as biochemical. On the procedure:
Cyclin-dependent kinases (p34^cdc2, p33^cdk2) and cyclins (cyclin B, E) are produced in Sf9 insect cells coinfected with appropriate baculoviral constructs. The cells are harvested 68-72 hrs post infection in lysis buffer for 30 min on ice and the soluble fraction is recovered by centrifugation at 14.000 g for 10 min. The protein extract is stored at −80° C.
Lysis buffer: 50 mM Tris pH 7.4, 150 mM NaCl, 5 mM EDTA, 20 mM NaF, 1% Tween, 1 mM DTT, 0.1 mM PMSF, leupeptine, aprotonine.
To carry out experiments on kinetics under linear conditions, the final point test system for kinase activity measurement is used. The kinase is added to reaction mixture in such a way as to obtain linear activity with respect to the concentration of enzyme and with respect to time.
The p34^cdc2 and p33^cdk2 kinase inhibition determination involves the use of 1 mg/ml histone H1 (Sigma, type III-S) in the presence of 15 μM [γ-^32P]ATP ([…]) (Amersham) in a final volume of 20 μl. Kinase activity is determined at 30° C. in the kinase buffer.
Tested compounds are usually dissolved to 100 mM solutions in DMSO, final concentration of DMSO in reaction mixture never exceeds 1%. The controls contain suitable dilutions of DMSO.
After 10 min, addition 3×SDS sample buffer stops the incubations. Phosphorylated proteins are separated electrophoretically using 12.5% SDS polyacrylamide gel. The measurement of kinase activity is done using digital image analysis.
The kinase activity is expressed as a percentage of maximum activity, the apparent inhibition constants are determined by graphic analysis (FIG. 1).
Kinase buffer: 50 mM Hepes pH 7.4, 10 mM MgCl2, 5 mM EGTA, 10 mM 2-glycerolphosphate, 1 mM NaF, 1 mM DTT

A further assay has as its system K-562. Nature of the assay: In vitro cytotoxic activity, MTT assay, K-562. It is filed as cell-based. As to conditions: Homo sapiens, K562, 72 hours. For orientation: Tetrazolium assays rely on reduction of a dye to a coloured formazan, in cell work by metabolically active cells.
The subject of a further assay is MCF7. Nature of the assay: In vitro cytotoxic activity, MTT assay, MCF7. As to conditions: Homo sapiens, 72 hours. It is filed as cell-based. From the text:
One of the parameters used, as the basis for colorimetric assays is the metabolic activity of viable cells. For example, a microtiter assay, which uses the tetrazolium salt MTT, is now widely used to quantitate cell proliferation and cytotoxicity. For instance, this assay is used in drug screening programs and in chemosensitivity testing. Because only metabolically active cells cleave tetrazolium salts, these assays detect viable cells exclusively. In the case of MTT assay, yellow soluble tetrazolium salt is reduced to coloured water-insoluble formazan salt. After it is solubilized, the formazan formed can easily and rapidly be quantified in a conventional ELISA plate reader at 570 nm (maximum absorbance). The quantity of reduced formazan corresponds to number of vital cells in the culture.
Human T-lymphoblastic leukemia cell line CEM; promyelocytic HL-60 and monocytic U937 leukemias; breast carcinoma cell lines MCF-7, BT549, MDA-MB-231; glioblastoma U87MG cells; cervical carcinoma cells HELA; sarcoma cells U2OS and Saos2; hepatocellular carcinoma HepG2; mouse immortalized bone marrow macrophages B2.4 and B10A.4; P388D1 and L1210 leukemia; B16 and B16F10 melanomas were used for routine screening of compounds. The cells were maintained in Nunc/Corning 80 cm^2 plastic tissue culture flasks and cultured in cell culture medium (DMEM with 5 g/l glucose, 2 mM glutamine, 100 U/ml penicillin, 100 μg/ml streptomycin, 10% fetal calf serum and sodium bicarbonate).
The cell suspensions that were prepared and diluted according to the particular cell type and the expected target cell density (2.500-30.000 cells per well based on cell growth characteristics) were added by pipette (80 μl) into 96/well microtiter plates. Inoculates were allowed a pre-incubation period of 24 hours at 37° C. and 5% CO2 for stabilisation. Four-fold dilutions of the intended test concentration were added at time zero in 20 μl aliquots to the microtiter plate wells. Usually, test compound was evaluated at six 4-fold dilutions. In routine testing, the highest well concentration was 266.7 μM, but it can be the matter of change dependent on the agent. All drug concentrations were examined in duplicates. Incubations of cells with the test compounds lasted for 72 hours at 37° C., in 5% CO2 atmosphere and 100% humidity. At the end of incubation period, the cells were assayed by using the MTT. Ten microliters of the MTT stock solution were pipetted into each well and incubated further for 1-4 hours. After this incubation period, formazan was solubilized by addition of 100 μl/well of 10% SDS in water (pH=5.5) followed by further incubation at 37° C. overnight. The optical density (OD) was measured at 540 nm with the Labsystem iEMS Reader MF (UK). The tumour cell survival (TCS) was calculated using the following equation: TCS=(ODdrug exposed well/mean ODcontrol wells)×100%. The IC50 value, the drug concentration lethal to 50% of the tumour cells, was calculated from the obtained dose response curves (FIG. 2).

The next assay addresses IκB-α kinase. Nature of the assay: IκB-α kinase inhibitory activity, in vitro kinase assay. Format: biochemical.

T1 sequence (P06493 whole entry, species assumed): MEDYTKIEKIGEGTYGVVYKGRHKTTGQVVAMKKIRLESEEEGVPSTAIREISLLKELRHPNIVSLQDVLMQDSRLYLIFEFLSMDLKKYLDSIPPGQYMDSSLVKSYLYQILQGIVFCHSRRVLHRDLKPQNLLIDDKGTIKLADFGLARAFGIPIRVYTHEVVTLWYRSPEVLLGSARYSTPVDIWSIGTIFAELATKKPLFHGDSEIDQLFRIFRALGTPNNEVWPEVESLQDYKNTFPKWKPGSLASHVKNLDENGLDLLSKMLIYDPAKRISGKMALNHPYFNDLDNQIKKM
T1 sequence (P14635 whole entry partner, species assumed): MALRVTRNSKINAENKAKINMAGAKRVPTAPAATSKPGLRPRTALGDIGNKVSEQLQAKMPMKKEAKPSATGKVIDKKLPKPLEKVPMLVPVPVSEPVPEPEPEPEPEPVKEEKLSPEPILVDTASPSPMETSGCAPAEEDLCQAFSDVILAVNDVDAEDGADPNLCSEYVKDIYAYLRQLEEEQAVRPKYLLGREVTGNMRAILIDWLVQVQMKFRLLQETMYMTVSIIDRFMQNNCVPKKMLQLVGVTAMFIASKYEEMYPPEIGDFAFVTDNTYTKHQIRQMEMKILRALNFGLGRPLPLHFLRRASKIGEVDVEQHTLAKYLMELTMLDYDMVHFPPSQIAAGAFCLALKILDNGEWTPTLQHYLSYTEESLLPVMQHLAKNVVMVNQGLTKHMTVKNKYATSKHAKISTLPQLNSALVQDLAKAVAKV

As for `CC(C)n1nnc2c(Nc3cccc(Cl)c3)nc(NC3CCCCC3N)nc21` (stereo not shown), the IC50 (as a rule, the midpoint of a concentration-inhibition curve) is 7 µM against p34^cdc2/cyclin B (CDC2), 12.2 µM in the assay with K-562, 8.9 µM in the assay on MCF7 and over 100 µM on IκB-α kinase.
For `CC(C)n1nnc2c(Nc3cccc(Cl)c3)nc(NCCN)nc21` the same measures were over 100 µM, over 100 µM, 100 µM and over 100 µM.
Regarding `CC(C)n1nnc2c(Nc3cccc(Cl)c3)nc(NCCO)nc21`, the IC50 in the assay on K-562, in the assay with MCF7 and on IκB-α kinase was over 100 µM in each case.
Consider `Cn1nnc2c(NCc3ccccc3)nc(NCCO)nc21`, for which the IC50 against p34^cdc2/cyclin B (CDC2) and against IκB-α kinase was over 100 µM in each case.
Turning to `CC(C)n1nnc2c(Nc3cccc(Cl)c3)nc(NCCCN)nc21`, the IC50 against p34^cdc2/cyclin B (CDC2) was over 100 µM; with K-562 it was over 100 µM; with MCF7, 100 µM; against IκB-α kinase, over 100 µM.
`CC(C)n1nnc2c(Nc3cccc(Cl)c3)nc(NCCCO)nc21`: the IC50 in the assay on K-562, with MCF7 and at IκB-α kinase was over 100 µM each time.
As for `CC(C)n1nnc2c(Nc3cccc(Cl)c3)nc(N(CCO)CCO)nc21`, the IC50 against p34^cdc2/cyclin B (CDC2) was 35 µM; in the assay on K-562 it was over 100 µM; in the assay on MCF7 it was 100 µM; at IκB-α kinase, over 100 µM.
Take `CC(C)[C@H](CO)Nc1nc(Nc2ccc(Cl)c(N)c2)c2nnn(C(C)C)c2n1`: the IC50 against p34^cdc2/cyclin B (CDC2) came to 24 µM; in the assay with K-562 it was 18.8 µM; with MCF7, 16.4 µM.
Take `CC(C)[C@H](CO)Nc1nc(Nc2ccc(Cl)c(C(=O)O)c2)c2nnn(C(C)C)c2n1`: the IC50 on p34^cdc2/cyclin B (CDC2) was 30 µM; in the assay on K-562 it was 42 µM; in the assay on MCF7, 21 µM; against IκB-α kinase, 80 µM.
Take `CC(C)[C@H](CO)Nc1nc(Nc2ccc(O)c(C(=O)O)c2)c2nnn(C(C)C)c2n1`: the IC50 is 34 µM against p34^cdc2/cyclin B (CDC2), 28 µM in the assay on K-562, 24 µM in the assay on MCF7 and over 100 µM at IκB-α kinase.
With `CC(C)[C@H](CO)Nc1nc(Nc2cccc(Cl)c2)c2nnn(C(C)C)c2n1`, the IC50 was 20 µM on p34^cdc2/cyclin B (CDC2), 96 µM in the assay with K-562, 80 µM with MCF7 and 80 µM against IκB-α kinase.
As for `CC(C)[C@H](CO)Nc1nc(Nc2ccc(Br)cc2)c2nnn(C(C)C)c2n1`, the IC50 on p34^cdc2/cyclin B (CDC2) is 35 µM; with K-562 it was 75 µM; in the assay on MCF7 it was 64 µM; against IκB-α kinase, over 100 µM.
For `CC(C)[C@H](CO)Nc1nc(Nc2ccc(Cl)cc2)c2nnn(C(C)C)c2n1` the same measures were 35 µM, 19.4 µM, 17.6 µM and 90 µM.
On to `CC(C)[C@H](CO)Nc1nc(Nc2ccccc2)c2nnn(C(C)C)c2n1`, for which the IC50 on p34^cdc2/cyclin B (CDC2) is 40 µM; in the assay on K-562, 100 µM; with MCF7, 80 µM.
As for `CC[C@H](CO)Nc1nc(NCc2ccccc2OC(C)=O)c2nnn(C(C)C)c2n1`, the concentration for half-maximal inhibition (IC50) is 19 µM on p34^cdc2/cyclin B (CDC2) and over 100 µM at IκB-α kinase.
As to `CC[C@H](CO)Nc1nc(NCc2ccccc2C(C)=O)c2nnn(C(C)C)c2n1`, the IC50 is 37 µM on p34^cdc2/cyclin B (CDC2) and over 100 µM against IκB-α kinase.
Regarding `CC[C@H](CO)Nc1nc(NCc2c(N)cccc2Cl)c2nnn(C(C)C)c2n1`, the IC50 against p34^cdc2/cyclin B (CDC2) was 31 µM; at IκB-α kinase, over 100 µM.
For `CC[C@H](CO)Nc1nc(NCc2cccc(OC)c2O)c2nnn(C(C)C)c2n1` the same measures were 15 µM and 75 µM.
For the compound `CC[C@H](CO)Nc1nc(NCc2cccc(C)c2O)c2nnn(C(C)C)c2n1`, the results for the IC50 against p34^cdc2/cyclin B (CDC2) and at IκB-α kinase were 34 µM and 80 µM, respectively.
Turning to `CC[C@H](CO)Nc1nc(NCc2ccccc2O)c2nnn(C(C)C)c2n1`, the IC50 was determined as 14 µM against p34^cdc2/cyclin B (CDC2) and 80 µM against IκB-α kinase.
The like results for `CC[C@H](CO)Nc1nc(NCc2ccc(Cl)c(N)c2N)c2nnn(C(C)C)c2n1` were, in that order, 45 µM and over 100 µM.
For the compound `CC[C@H](CO)Nc1nc(NCc2ccc(OC)c(O)c2O)c2nnn(C(C)C)c2n1`, the results for the IC50 against p34^cdc2/cyclin B (CDC2) and against IκB-α kinase were 14 µM and over 100 µM, respectively.
The like results for `CC[C@H](CO)Nc1nc(NCc2cc(O)c(Cl)cc2O)c2nnn(C(C)C)c2n1` were, in that order, 16 µM and over 100 µM.
In the case of `CC[C@H](CO)Nc1nc(NCc2cc(O)c(OC)cc2O)c2[nH]nc(C(C)C)c2n1`, the IC50 was 12 µM against p34^cdc2/cyclin B (CDC2) and over 100 µM against IκB-α kinase.
For the compound `CC[C@H](CO)Nc1nc(NCc2c(O)cc(OC)cc2O)c2nnn(C(C)C)c2n1`, the IC50 was 17 µM against p34^cdc2/cyclin B (CDC2) and over 100 µM against IκB-α kinase.
For `CC[C@H](CO)Nc1nc(NCc2cccc(OC(C)=O)c2)c2nnn(C(C)C)c2n1` the same measures were 24 µM and over 100 µM.
Turning to `CC[C@H](CO)Nc1nc(NCc2cccc(C(C)=O)c2)c2nnn(C(C)C)c2n1`, the IC50 against p34^cdc2/cyclin B (CDC2) was 58 µM; at IκB-α kinase, over 100 µM.
As to `CC[C@H](CO)Nc1nc(NCc2ccc(Cl)c(N)c2)c2nnn(C(C)C)c2n1`, the figures for the half-maximal inhibitory concentration (IC50) on p34^cdc2/cyclin B (CDC2) and at IκB-α kinase were 29 µM and over 100 µM, respectively.
For `CC[C@H](CO)Nc1nc(Nc2ccc(Cl)c(C(=O)O)c2)c2nnn(C(C)C)c2n1` the same measures were 40 µM and over 100 µM.
For the compound `CC[C@H](CO)Nc1nc(Nc2ccc(N)c(Cl)c2)c2nnn(C(C)C)c2n1`, the IC50 against p34^cdc2/cyclin B (CDC2) is 50 µM; against IκB-α kinase, over 100 µM.
For `CC[C@H](CO)Nc1nc(Nc2ccc(C(=O)O)c(Cl)c2)c2nnn(C(C)C)c2n1` the same measures were 35 µM and 70 µM.
Regarding `CC[C@H](CO)Nc1nc(Nc2cc(N)cc(Cl)c2)c2nnn(C(C)C)c2n1`, the results for the IC50 at p34^cdc2/cyclin B (CDC2) and on IκB-α kinase were 28 µM and 75 µM, respectively.
With `CC[C@H](CO)Nc1nc(NCc2ccc(O)c(O)c2)c2nnn(C(C)C)c2n1`, the IC50 against p34^cdc2/cyclin B (CDC2) is 40 µM; at IκB-α kinase, over 100 µM.
The like results for `CC[C@H](CO)Nc1nc(Nc2ccc(Br)cc2)c2nnn(C(C)C)c2n1` were, in that order, 26 µM and 90 µM.
For `CC[C@H](CO)Nc1nc(Nc2ccccc2)c2nnn(C(C)C)c2n1`, the IC50 at p34^cdc2/cyclin B (CDC2) turned out to be 29 µM; against IκB-α kinase it was 70 µM.
As to `CC(C)[C@H](CO)Nc1nc(NC(CO)c2ccccc2)c2nnn(C(C)C)c2n1` (mixture of isomers), the IC50 against p34^cdc2/cyclin B (CDC2) is 50 µM; against IκB-α kinase, over 100 µM.
For `Cn1nnc2c(NC(CO)c3ccccc3)nc(NCCO)nc21` (racemic) the same measures were 80 µM and over 100 µM.
For `CC(C)n1nnc2c(NCc3ccccc3)nc(NCCCO)nc21` [2-(3-Hydroxypropylamino)-6-benzylamino-9-isopropyl-8-azapurine] the same measures were over 100 µM and over 100 µM.
The like results for `Cn1nnc2c(Nc3ccccc3)nc(NCCO)nc21` [2-hydroxyethylamino / anilino / methyl] were, in that order, 42 µM and over 100 µM.
